In publication PMC12259270, “Sensory neuron–expressed FGF13 controls nociceptive signaling in diabetic neuropathy models” (The Journal of Clinical Investigation, 2025):
Values joined by “and” are separate entries in the source; they are usually repeats but may differ in a detail not shown here. Equal entries are not always repeated. Residues, ends and D or L forms follow the SMILES beside them. *: point of attachment. Cbz = O=C(OCc1ccccc1)*; NHPh = c1ccc(N*)cc1; OtBu = CC(C)(C)O*

Assays:
[1] = biological target: T1, FGF13R110A/Nav1.7 complex (Homo sapiens, UniProt Q15858+Q92913, R110A); assay: LCA, CLuc-FGF13R110A/CD4-Nav1.7-CTD-NLuc; assay type: cell-based; conditions: for activity against the FGF13R110A/Nav1.7 complex: LCA, PW164 20 μM, ZL192 50 μM
T1 construct: Full-length FGF13-1b (aa 1-192) was subcloned into appropriate plasmids; Nav1.7 residues 1780-1977; expressed in transfected cells; host or cells: HEK293 (inferred; the LCA paragraph only says 'cells')
T1 sequence (Q92913 1-192 isoform Q92913-2 R57A): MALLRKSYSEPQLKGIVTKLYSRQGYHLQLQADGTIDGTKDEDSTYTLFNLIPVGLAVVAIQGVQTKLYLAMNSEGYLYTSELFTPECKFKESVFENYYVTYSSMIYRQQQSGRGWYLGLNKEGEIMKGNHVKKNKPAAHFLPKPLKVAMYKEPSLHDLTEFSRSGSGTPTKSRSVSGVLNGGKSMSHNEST
T1 sequence (Q15858 1791-1988): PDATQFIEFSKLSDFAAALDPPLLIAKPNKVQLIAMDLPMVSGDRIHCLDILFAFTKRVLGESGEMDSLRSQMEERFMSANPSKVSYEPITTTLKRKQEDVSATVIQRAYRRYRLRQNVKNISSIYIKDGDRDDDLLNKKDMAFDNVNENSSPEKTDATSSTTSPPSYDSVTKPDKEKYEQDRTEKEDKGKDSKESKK
Description: The respective gene ID numbers used in this study are as follows: NM_033642 (human, FGF13-1b) and NM_002977 (human SCN9A). Full-length FGF13-1b (aa 1-192) was subcloned into appropriate plasmids for use in this investigation, unless otherwise noted. For consistency with AlphaFold modeling presented, numbering of point mutations to FGF13-1b are based on the longest FGF13 isoform (FGF13-1a, NM_004114.2). CLuc-FGF13, […]
and constructs expressing the CLuc or the NLuc fragments of Firefly ( Photinus pyralis) luciferase (24) respectively were engineered, mutated (CLuc-FGF13R110A) and sequenced at the Molecular Genomics Core (University of Texas Medical Branch). The CD4 -Nav1.7-CTD-NLuc cassette was synthesized from GeneArt (Nav1.7 residues 1780-1977) (ThermoFisher) and subcloned at 5'-HindIII and 3’-BsiWi restriction sites in pcDNA3.1 (Invitrogen). Additionally, FGF13 was amplified with polymerase chain reaction (PCR) by using gene-specific primers, and subcloned in pcDNA3.1 at 5’ -BsiWi and 3’-Not I restriction sites. […]
Cell Culture and transfections
HEK293 cells were purchased from ATCC (catalog # CRL-1573). Cells were cultured and incubated at 37 °C with 5% CO2 in medium with equal volumes of Dulbecco modified essential medium (DMEM) and F12 […]
Split-luciferase Complementation Assay (LCA)
Twenty-four hours post transfection, cells were trypsinized using TrypLE (Gibco; cat # 12604013), centrifuged at 1750 rpm for 5 min, triturated in medium, and seeded into white clear-bottom 96-well CELLSTAR µClear® plates (Greiner Bio -One; cat # 655073 ) at ~0.8 x 10^5 cells per well in 200 µl of medium. The cells were incubated for another 24 hours, and then the growth medium was replaced with 100 µl serum -free, phenol red -free DMEM/F-12 medium (Invitrogen). All compounds from the PW - and the ZL-series, including PW164 and ZL192, were dissolved in DMSO, added to a final concentration of 1 –500 μM (0.5 % DMSO) in the serum -free medium and then cells were incubated for two hours. The bioluminescence reaction was initiated by injection of 100 μl of D -luciferin substrate (1.5 mg/ml dissolved in PBS) using a Synergy H4 multimode microplate reader (BioTek). Luminescence readings were initiated after 3 s of mild plate shaking and performed at 2 min intervals for 20-30 min with integration times of 0.5 s, and the c ells were maintained throughout the measurements at 37 °C. Raw signal intensity was computed by averaging peak luminescence plus two adjacent time points.
Normalized signal intensity was expressed as the percentage of mean signal intensity relative to per plate control wells treated with 0.5% DMSO.
Surface plasmon resonance (SPR)
All SPR experiments were performed on a Biacore T100 (GE Healthcare). Biotin-Nav1.7-CTD peptide […]

[2] = system: C57BL/6 mice; assay: Mechanical sensitivity (von Frey, LVF/HVF) after intraplantar injection, mice without capsaicin; assay type: in vivo, mouse; parameters: key to LVF Mean / HVF Mean: % withdrawals from 10 consecutive von Frey stimulations; conditions: for HVF Mean / LVF Mean: without capsaicin
Procedure: Experiments were performed on 6- to 12-week-old male C57BL/6 mice (The Jackson Laboratory, Bar Harbor, ME) housed in the AAALAC-accredited facility at the University of Texas Medical Branch. Mice were group-housed with up to 5 mice per cage on a 12-to-12-hour light–dark cycle and had access to water and food ad libitum. All protocols were approved by the Institutional Animal Care and Use Committee (IACUC) at the University of Texas Medical Branch and in accordance with the National Institutes of Health (NIH) guidelines.
PW164 and ZL192 were dissolved in DMSO and saline in a ratio of 1:10. 0.1% capsaicin (10% ethanol, 10% Tween-20 in saline; Sigma-Aldrich). All the compounds were injected at the center of the hind paw. The control group received a DMSO-saline mixture. […]
Assessment of mechanical sensitivity
Mechanical sensitivity was assessed using von Frey filaments (VFF 0.1g and 1.0 g force) in mice that were either naïve or received intraplantar (i.p.) injection of capsaicin. VFFs were applied at the injection site (capsaicin or drug unilateral intraderma l injection at the center of the hind paw using a 30 -G needle). VFF of 1.0 g force, which evokes a 40–60% withdrawal response in the naïve condition, was used to detect hyperalgesia, and VFF of 0.1 g […]
mechanical sensitivity was expressed as % withdrawals from 10 consecutive stimulations. […]

SMILES: COC(=O)[C@@H](NC(=O)[C@H](CCC(=O)OC(C)(C)C)NC(=O)[C@H](CC(C)C)NC(=O)[C@@H]1CCCN1C(=O)OCc1ccccc1)C(C)C [PW164] (Cbz-PLE(OtBu)V-OMe)
- Percentage luminescence, single replicates ([1]; Fig 1B, FGF13R110A, PW164 (20 μM)): 93.615% and 94.3116% and 89.4358% and 83.8635% and 99.0481% and 84.8386% and 92.9185% and 91.1075% and 93.4757% and 87.3462% and 108.8%
- activity against the FGF13R110A/Nav1.7 complex [1]: prevented PW164 binding
- HVF Mean ([2]; PW164 0.07mg/mL, Time (h) 0): 50
- LVF Mean ([2]; PW164 0.07mg/mL, Time (h) 0): 0
- HVF Mean ([2]; PW164 0.07mg/mL, Time (h) 0.5): 50
- LVF Mean ([2]; PW164 0.07mg/mL, Time (h) 0.5): 0
- HVF Mean ([2]; PW164 0.07mg/mL, Time (h) 1): 55
- LVF Mean ([2]; PW164 0.07mg/mL, Time (h) 1): 0
- HVF Mean ([2]; PW164 0.07mg/mL, Time (h) 1.5): 50
- LVF Mean ([2]; PW164 0.07mg/mL, Time (h) 1.5): 0
- HVF Mean ([2]; PW164 0.07mg/mL, Time (h) 2): 50
- LVF Mean ([2]; PW164 0.07mg/mL, Time (h) 2): 0
- HVF Mean ([2]; PW164 0.21 mg/mL, Time (h) 0): 53.3333
- LVF Mean ([2]; PW164 0.21 mg/mL, Time (h) 0): 0
- HVF Mean ([2]; PW164 0.21 mg/mL, Time (h) 0.5): 50
- LVF Mean ([2]; PW164 0.21 mg/mL, Time (h) 0.5): 0
- HVF Mean ([2]; PW164 0.21 mg/mL, Time (h) 1): 50
- LVF Mean ([2]; PW164 0.21 mg/mL, Time (h) 1): 0
- HVF Mean ([2]; PW164 0.21 mg/mL, Time (h) 1.5): 53.3333
- LVF Mean ([2]; PW164 0.21 mg/mL, Time (h) 1.5): 0
- HVF Mean ([2]; PW164 0.21 mg/mL, Time (h) 2): 50
- LVF Mean ([2]; PW164 0.21 mg/mL, Time (h) 2): 3.333
- HVF Mean ([2]; PW164 0.7 mg/mL, Time (h) 0): 53.3333
- LVF Mean ([2]; PW164 0.7 mg/mL, Time (h) 0): 0
- HVF Mean ([2]; PW164 0.7 mg/mL, Time (h) 0.5): 50
- LVF Mean ([2]; PW164 0.7 mg/mL, Time (h) 0.5): 0
- HVF Mean ([2]; PW164 0.7 mg/mL, Time (h) 1): 56.6667
- LVF Mean ([2]; PW164 0.7 mg/mL, Time (h) 1): 0
- HVF Mean ([2]; PW164 0.7 mg/mL, Time (h) 1.5): 53.3333
- LVF Mean ([2]; PW164 0.7 mg/mL, Time (h) 1.5): 3.333
- HVF Mean ([2]; PW164 0.7 mg/mL, Time (h) 2): 56.6667
- LVF Mean ([2]; PW164 0.7 mg/mL, Time (h) 2): 0
- paw withdrawal to LVF/HVF stimulation, normal sensitivity ([2]; WT mice, i.pl. 5 μL, doses tested): did not affect paw withdrawal

SMILES: CC(=O)N[C@@H](Cc1ccccc1)C(=O)N[C@@H](CC(C)C)C(=O)N1CCC[C@H]1C(=O)N[C@@H](CCCCN)C(=O)Nc1ccccc1 [ZL192] (Ac-FLPK-NHPh)
- LCA signal, FGF13R110A (Figure 1B), individual replicates ([1]; FGF13R110A, ZL192 vs Vehicle): 170.87 and 102.219 and 90.2721 and 84.4389 and 144.478 and 146.648 and 93.2954 and 156.251 and 109.034 and 101.512 and 90.7701 and 115.348
- activity against the FGF13R110A/Nav1.7 complex [1]: no agonist activity
- mechanical hypersensitivity in AAV2-shFGF13 mice ([2]; ZL192 0.18 mg/mL, i.pl.): absent
- mechanical sensitivity in AAV2-shCTRL mice ([2]; ZL192 0.18 mg/mL, i.pl.): caused mechanical and thermal hypersensitivity
- duration of increased mechanical response ([2]; naive WT mice, ZL192 i.pl. 0.06 or 0.18 mg/mL): up to 2 hours
- response to LVF and HVF stimulation ([2]; naive WT mice, ZL192 i.pl. 5 μL, 0.06 or 0.18 mg/mL, vs vehicle): increased the response
